Data from PubChem BioAssay (NCI).
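Test compounds were applied to cells in 96-well plates for 48 hours at 5 doses. Definition used: TGI = concentration required for complete inhibition of growth.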

Experiments:
Assay in all cases: DTP human tumour cell line panel, 48 h
[1] = system: SNB-19 CNS
[2] = system: RXF-631 renal
[3] = system: HOP-92 NSCLC
[4] = system: NCI-H460 lung
[5] = system: LXFL 529 NSCLC
[6] = system: SK-MEL-2 melanoma
[7] = system: SF-268 CNS
[8] = system: SF-539 CNS
[9] = system: OVCAR-3 ovarian
[10] = system: RXF 393 renal
[11] = system: HCC-2998 colon
[12] = system: HT29 colon
[13] = system: HL-60(TB) leukemia
[14] = system: CCRF-CEM leukemia
[15] = system: U251 CNS
[16] = system: TK-10 renal
[17] = system: SK-MEL-28 melanoma
[18] = system: NCI-H23 lung
[19] = system: K-562 leukemia
[20] = system: COLO 205 colon
[21] = system: HCT-15 colon
[22] = system: UO-31 renal
[23] = system: OVCAR-4 ovarian
[24] = system: 786-0 renal
[25] = system: DMS 114 small cell lung
[26] = system: EKVX NSCLC
[27] = system: MALME-3M melanoma
[28] = system: SF-295 CNS
[29] = system: HOP-18 NSCLC
[30] = system: DLD-1 colon
[31] = system: RPMI-8226 leukemia
[32] = system: KM12 colon
[33] = system: MOLT-4 leukemia
[34] = system: NCI-H522 lung
[35] = system: KM20L2 colon
[36] = system: OVCAR-5 ovarian
[37] = system: SW-620 colon
[38] = system: SNB-75 CNS
[39] = system: M14 melanoma
[40] = system: OVCAR-8 ovarian
[41] = system: HCT-116 colon
[42] = system: A498 renal
[43] = system: SK-MEL-5 melanoma
[44] = system: ACHN renal
[45] = system: M19-MEL melanoma
[46] = system: A549 NSCLC
[47] = system: SNB-78 CNS
[48] = system: DMS 273 small cell lung
[49] = system: UACC-257 melanoma
[50] = system: UACC-62 melanoma
[51] = system: SN12C renal
[52] = system: HOP-62 NSCLC
[53] = system: IGROV1 ovarian
[54] = system: SR leukemia
[55] = system: LOX IMVI melanoma
[56] = system: SK-OV-3 ovarian
[57] = system: NCI-H226 lung
[58] = system: XF 498 CNS
[59] = system: CAKI-1 renal

`COCCCNC(=O)C1C(=O)N(CCCOC)C(=O)/C1=N\N` (configuration not stated) was tested, and the TGI [1] was greater than 100 µM, the TGI [2] was greater than 100 µM and the TGI [3] was greater than 100 µM. For the same molecule, the TGI [4] was greater than 100 µM, the TGI [5] was greater than 100 µM and the TGI [6] was greater than 100 µM. It also gave a TGI [7] greater than 100 µM, a TGI [8] greater than 100 µM and a TGI [9] greater than 100 µM. The TGI [10] was greater than 100 µM, the TGI [11] was greater than 100 µM and the TGI [12] was greater than 100 µM. The TGI [13] was greater than 100 µM, the TGI [14] was greater than 100 µM and the TGI [15] was greater than 100 µM. It also gave a TGI [16] greater than 100 µM, a TGI [17] greater than 100 µM and a TGI [18] greater than 100 µM. For the same molecule, the TGI [19] was greater than 100 µM, the TGI [20] was greater than 100 µM and the TGI [21] was greater than 100 µM. For the same molecule, the TGI [22] was greater than 100 µM, the TGI [23] was greater than 100 µM and the TGI [24] was greater than 100 µM. The TGI [25] was greater than 100 µM, the TGI [26] was greater than 100 µM and the TGI [27] was greater than 100 µM. For the same molecule, the TGI [28] was greater than 100 µM, the TGI [29] was greater than 100 µM and the TGI [30] was greater than 100 µM. For the same molecule, the TGI [31] was greater than 100 µM, the TGI [32] was greater than 100 µM and the TGI [33] was greater than 100 µM. It also gave a TGI [34] greater than 100 µM, a TGI [35] greater than 100 µM and a TGI [36] greater than 100 µM. It also gave a TGI [37] greater than 100 µM, a TGI [38] greater than 100 µM and a TGI [39] greater than 100 µM. For the same molecule, the TGI [40] was greater than 100 µM, the TGI [41] was greater than 100 µM and the TGI [42] was greater than 100 µM. The TGI [43] was greater than 100 µM, the TGI [44] was greater than 100 µM and the TGI [45] was greater than 100 µM. For the same molecule, the TGI [46] was greater than 100 µM, the TGI [47] was greater than 100 µM and the TGI [48] was greater than 100 µM. It also gave a TGI [49] greater than 100 µM, a TGI [50] greater than 100 µM and a TGI [51] greater than 100 µM. It also gave a TGI [52] greater than 100 µM.

`COc1cc([C@@H]2c3cc4c(cc3C(N)C3COC(=O)[C@@H]32)OCO4)cc(OC)c1O` (some centres not stated) was tested, and the TGI [1] was 0.646 µM, the TGI [2] was 0.606 µM and the TGI [53] was greater than 100 µM. It also gave a TGI [5] greater than 100 µM, a TGI [7] greater than 100 µM and a TGI [8] of 0.586 µM. For the same molecule, the TGI [54] was 0.428 µM, the TGI [13] was 0.555 µM and the TGI [14] was greater than 100 µM. It also gave a TGI [16] greater than 100 µM, a TGI [18] greater than 100 µM and a TGI [19] greater than 100 µM. The TGI [20] was 0.362 µM, the TGI [21] was greater than 100 µM and the TGI [22] was greater than 100 µM. It also gave a TGI [23] greater than 100 µM, a TGI [24] greater than 100 µM and a TGI [28] greater than 100 µM. It also gave a TGI [29] greater than 100 µM, a TGI [30] greater than 100 µM and a TGI [31] greater than 100 µM. The TGI [33] was 1.17 µM, the TGI [55] was greater than 100 µM and the TGI [37] was greater than 100 µM. It also gave a TGI [41] greater than 100 µM, a TGI [44] greater than 100 µM and a TGI [45] greater than 100 µM. It also gave a TGI [46] greater than 100 µM, a TGI [49] greater than 100 µM and a TGI [51] greater than 100 µM. For the same molecule, the TGI [52] was greater than 100 µM.

With `CCOC(=O)C1(C/C=C(/C)Cl)CCCC1=O` (configuration not stated) the TGI [1] was greater than 100 µM, the TGI [2] was greater than 100 µM and the TGI [53] was greater than 100 µM. For the same molecule, the TGI [4] was greater than 100 µM, the TGI [5] was greater than 100 µM and the TGI [6] was greater than 100 µM. It also gave a TGI [7] greater than 100 µM, a TGI [8] greater than 100 µM and a TGI [54] of 45.7 µM. For the same molecule, the TGI [9] was greater than 100 µM, the TGI [10] was greater than 100 µM and the TGI [12] was greater than 100 µM. For the same molecule, the TGI [13] was greater than 100 µM, the TGI [14] was greater than 100 µM and the TGI [15] was greater than 100 µM. For the same molecule, the TGI [16] was greater than 100 µM, the TGI [17] was greater than 100 µM and the TGI [18] was greater than 100 µM. For the same molecule, the TGI [56] was greater than 100 µM, the TGI [19] was greater than 100 µM and the TGI [20] was greater than 100 µM. The TGI [21] was greater than 100 µM, the TGI [22] was greater than 100 µM and the TGI [23] was greater than 100 µM. For the same molecule, the TGI [24] was greater than 100 µM, the TGI [25] was greater than 100 µM and the TGI [26] was greater than 100 µM. For the same molecule, the TGI [27] was greater than 100 µM, the TGI [28] was greater than 100 µM and the TGI [29] was greater than 100 µM. For the same molecule, the TGI [30] was greater than 100 µM, the TGI [31] was 53.6 µM and the TGI [32] was greater than 100 µM. It also gave a TGI [33] greater than 100 µM, a TGI [34] greater than 100 µM and a TGI [55] greater than 100 µM. The TGI [35] was greater than 100 µM, the TGI [36] was greater than 100 µM and the TGI [38] was greater than 100 µM. The TGI [39] was greater than 100 µM, the TGI [57] was greater than 100 µM and the TGI [40] was greater than 100 µM. The TGI [41] was greater than 100 µM, the TGI [58] was greater than 100 µM and the TGI [42] was greater than 100 µM. For the same molecule, the TGI [43] was greater than 100 µM, the TGI [44] was greater than 100 µM and the TGI [45] was greater than 100 µM. For the same molecule, the TGI [46] was greater than 100 µM, the TGI [48] was greater than 100 µM and the TGI [49] was greater than 100 µM. For the same molecule, the TGI [50] was greater than 100 µM, the TGI [59] was greater than 100 µM and the TGI [51] was greater than 100 µM. For the same molecule, the TGI [52] was greater than 100 µM.

For `COc1ccc(S(=O)(=O)Nc2ccccc2C(=O)O)cc1`, the TGI [1] was greater than 100 µM, the TGI [2] was greater than 100 µM and the TGI [3] was greater than 100 µM. The TGI [53] was greater than 100 µM, the TGI [4] was greater than 100 µM and the TGI [5] was greater than 100 µM. It also gave a TGI [6] greater than 100 µM, a TGI [7] greater than 100 µM and a TGI [8] greater than 100 µM. For the same molecule, the TGI [9] was greater than 100 µM, the TGI [10] was greater than 100 µM and the TGI [11] was greater than 100 µM. It also gave a TGI [12] greater than 100 µM, a TGI [13] greater than 100 µM and a TGI [14] greater than 100 µM. For the same molecule, the TGI [15] was greater than 100 µM, the TGI [16] was greater than 100 µM and the TGI [17] was greater than 100 µM. For the same molecule, the TGI [18] was greater than 100 µM, the TGI [56] was greater than 100 µM and the TGI [19] was greater than 100 µM. It also gave a TGI [20] greater than 100 µM, a TGI [21] greater than 100 µM and a TGI [22] greater than 100 µM. For the same molecule, the TGI [23] was greater than 100 µM, the TGI [24] was greater than 100 µM and the TGI [26] was greater than 100 µM. For the same molecule, the TGI [27] was greater than 100 µM, the TGI [28] was greater than 100 µM and the TGI [29] was greater than 100 µM. It also gave a TGI [30] greater than 100 µM, a TGI [31] greater than 100 µM and a TGI [32] greater than 100 µM. The TGI [33] was greater than 100 µM, the TGI [34] was greater than 100 µM and the TGI [55] was greater than 100 µM. It also gave a TGI [35] greater than 100 µM, a TGI [36] greater than 100 µM and a TGI [37] greater than 100 µM. The TGI [38] was greater than 100 µM, the TGI [39] was greater than 100 µM and the TGI [57] was greater than 100 µM. For the same molecule, the TGI [40] was greater than 100 µM, the TGI [58] was greater than 100 µM and the TGI [42] was greater than 100 µM. The TGI [43] was greater than 100 µM, the TGI [44] was greater than 100 µM and the TGI [45] was greater than 100 µM. The TGI [46] was greater than 100 µM, the TGI [48] was greater than 100 µM and the TGI [49] was greater than 100 µM. The TGI [50] was greater than 100 µM, the TGI [59] was greater than 100 µM and the TGI [51] was greater than 100 µM.
